Earlier results as cited in US20050165089A1, “Compounds, compositions and methods” (priority 2003, published 2005).

Test system: A549 cells

In order of falling GI50:
1. NC(=O)NO [hydroxyurea]  500000 nM
2. O=c1[nH]cc(F)c(=O)[nH]1 [5-fluorouracil]  1000 nM
3. COc1cccc2c1C(=O)c1c(O)c3c(c(O)c1C2=O)C[C@@](O)(C(=O)CO)C[C@@H]3O[C@H]1C[C@H](N)[C@H](O)[C@H](C)O1 [doxorubicin]  63 nM
4. CC(=O)O[C@H]1C(=O)[C@@]2(C)[C@H]([C@H](OC(=O)c3ccccc3)[C@]3(O)C[C@H](OC(=O)[C@H](O)[C@@H](NC(=O)c4ccccc4)c4ccccc4)C(C)=C1C3(C)C)[C@]1(OC(C)=O)CO[C@@H]1C[C@@H]2O [paclitaxel]  4 nM
